Test results reported in PubChem BioAssay AID1963958 (Molecular Pharmacology Branch, DTP, NCI, 2024).

Test system: MDA-MB-231 multicell spheroids, viability
Assay: Anticancer human tumor MDA-MB-231 cell line growth inhibition [PI3K];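 note: spheroids exposed to agents for seven days before reading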;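 for viability, T/C: percent of vehicle control luminescence with DMSO treated spheroids as 100%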
Conditions: for IC50: curve of first compound; for viability, T/C: stronger effect = lower value
From the text: Combinatorial screen of targeted agents with the PI3K inhibitors inavolisib, alpelisib, duvelisib, and copanlisib in multi-cell type tumor spheroids
A high-throughput screen of multi-cell type tumor spheroids was designed to identify active combinations of targeted small molecules and PI3K pathway inhibitors. Complex spheroids include a stromal component modeled by human endothelial cells (HUVEC) and fibroblasts modeled by human mesenchymal stem cells (MSCs). The concentration ranges selected for each drug and investigational agent were based upon clinically achievable concentrations if the clinical Cmax of the agent was known.
Compounds. The drugs and investigational agents: inavolisib (NSC800729), alpelisib (NSC765974), duvelisib (NSC772469), copanlisib (NSC816437), ipatasertib (NSC767898), afuresertib (NSC778305), talazoparib (NSC767125), sapanisertib (NSC764658), selumetinib (NSC741078), tovorafenib (DAY101, NSC766906), vemurafenib (NSC761431), ravoxertinib (NSC781343), sotorasib (NSC818433), MRTX1133 (NSC 836407), abemaciclib (NSC 768073), palbociclib (NSC758247), venetoclax (NSC 766270), SY5609 (NSC837396), enzalutamide (NSC755605), and darolutamide (NSC825331), were obtained from the National Cancer Institute (NCI) Developmental Therapeutics Program Chemical Repository. The FDA-approved anticancer drug set is available from the NCI Developmental Therapeutics Program. […] The stock solutions were prepared in dimethyl sulfoxide (DMSO, Sigma-Aldrich, St. Louis, MO, cat. D2650) at 800-fold the tested concentration and stored at -70 degrees C prior to their use. All drugs and investigational agents were tested over a range starting from a high concentration at or near the clinical Cmax and decreasing in half-log increments. If the clinical Cmax for an agent had not been determined, the highest concentration tested was 10 microM.
Cell Culture. All cells were maintained in an incubator at 37 degrees C and 5% CO2 with 95% humidity. The PDC lines were cultured according to standard operating procedures established by the NCI PDMR (https://pdmr.cancer.gov/sops/default.htm). All PDCs were thawed and cultured in Matrigel-coated flasks prepared with a working solution of 1X Ham's F-12 nutrient mix, without supplementation (Invitrogen, Waltham, MA, cat. 11765054), 100 U/mL penicillin-streptomycin (Invitrogen, cat. 15140122), and 2.5% Matrigel (Corning Inc., Corning, NY, cat. 354248) for the first three passages. The 354836-022-R-J1-PDC, 475296-252-R-J1-PDC, and 997726-040-R-J2-PDC lines were cultured in 6A media, which includes advanced DMEM/F-12 (Thermo Fisher Scientific, cat. 12634028), 10 mM HEPES (Thermo Fisher Scientific, cat. 15630080), 1X GlutaMAX supplement (Thermo Fisher Scientific, cat. 35050061), 0.1 mg/mL primocin (InvivoGen, San Diego, CA, cat. ant-pm-2), 10% defined fetal bovine serum, heat inactivated (HyClone Laboratories Inc., Logan, UT, cat. SH30070.03HI), 50% L-WRN conditioned media (ATCC, cat. CRL-3276), 1.25 mM N-Acetyl-L-cysteine (Sigma-Aldrich, cat. A9165), 10 mM nicotinamide (Sigma-Aldrich, cat. N0636), 1X B-27 supplement (Thermo Fisher Scientific, cat. 17504044), 1X N-2 supplement (Thermo Fisher Scientific, cat. 17502048), and 10 microM Y-27632 dihydrochloride (Tocris Bioscience, Bristol, United Kingdom, cat. 1254). The 624824-186-R-J2-PDC line was cultured in 6C/Colon 1B media, which includes all 6A media components plus 50 ng/mL human EGF recombinant protein (Thermo Fisher Scientific, cat. PHG0311). […]

IC50 (second compound 0.00316 µM): 0.0744 µM
IC50 (second compound 0.01 µM): 0.0606 µM
IC50 (second compound 0.0316 µM): 0.0344 µM
IC50 (second compound 0.1 µM): 0.0154 µM
IC50 (second compound 0.316 µM): 0.0101 µM
IC50 (second compound 1 µM): 0.00452 µM
SMILES: CC(=O)c1c(C)c2cnc(Nc3ccc(N4CCNCC4)cn3)nc2n(C2CCCC2)c1=O + CC(Nc1ccc2c(c1)OCCn1cc(N3C(=O)OCC3C(F)F)nc1-2)C(N)=O
viability, T/C (second compound 0.00316 µM, first compound 0.000316 µM): 108%
viability, T/C (second compound 0.00316 µM, first compound 0.001 µM): 91.5%
viability, T/C (second compound 0.00316 µM, first compound 0.00316 µM): 98.1%
viability, T/C (second compound 0.00316 µM, first compound 0.01 µM): 90.2%
viability, T/C (second compound 0.00316 µM, first compound 0.0316 µM): 67.4%
viability, T/C (second compound 0.00316 µM, first compound 0.1 µM): 43.5%
viability, T/C (second compound 0.01 µM, first compound 0.000316 µM): 94.1%
viability, T/C (second compound 0.01 µM, first compound 0.001 µM): 92.6%
viability, T/C (second compound 0.01 µM, first compound 0.00316 µM): 95.7%
viability, T/C (second compound 0.01 µM, first compound 0.01 µM): 72.1%
viability, T/C (second compound 0.01 µM, first compound 0.0316 µM): 67%
viability, T/C (second compound 0.01 µM, first compound 0.1 µM): 38.7%
viability, T/C (second compound 0.0316 µM, first compound 0.000316 µM): 80.1%
viability, T/C (second compound 0.0316 µM, first compound 0.001 µM): 75.7%
viability, T/C (second compound 0.0316 µM, first compound 0.00316 µM): 79.9%
viability, T/C (second compound 0.0316 µM, first compound 0.01 µM): 69%
viability, T/C (second compound 0.0316 µM, first compound 0.0316 µM): 51.8%
viability, T/C (second compound 0.0316 µM, first compound 0.1 µM): 31.6%
viability, T/C (second compound 0.1 µM, first compound 0.000316 µM): 71.3%
viability, T/C (second compound 0.1 µM, first compound 0.001 µM): 65.7%
viability, T/C (second compound 0.1 µM, first compound 0.00316 µM): 65.1%
viability, T/C (second compound 0.1 µM, first compound 0.01 µM): 55.2%
viability, T/C (second compound 0.1 µM, first compound 0.0316 µM): 41.3%
viability, T/C (second compound 0.1 µM, first compound 0.1 µM): 27.9%
viability, T/C (second compound 0.316 µM, first compound 0.000316 µM): 65.8%
viability, T/C (second compound 0.316 µM, first compound 0.001 µM): 64%
viability, T/C (second compound 0.316 µM, first compound 0.00316 µM): 61.3%
viability, T/C (second compound 0.316 µM, first compound 0.01 µM): 48.2%
viability, T/C (second compound 0.316 µM, first compound 0.0316 µM): 37.9%
viability, T/C (second compound 0.316 µM, first compound 0.1 µM): 24.3%
viability, T/C (second compound 1 µM, first compound 0.000316 µM): 60.9%
viability, T/C (second compound 1 µM, first compound 0.001 µM): 55.1%
viability, T/C (second compound 1 µM, first compound 0.00316 µM): 51.9%
viability, T/C (second compound 1 µM, first compound 0.01 µM): 46.2%
viability, T/C (second compound 1 µM, first compound 0.0316 µM): 35.9%
viability, T/C (second compound 1 µM, first compound 0.1 µM): 23.4%
